From publication PMC3183052, “Immunoprotectivity of HLA-A2 CTL Peptides Derived from Respiratory Syncytial Virus Fusion Protein in HLA-A2 Transgenic Mouse” (PLoS ONE, 2011)

What was measured:
[1] = test system: splenocytes from HLA-A*0201 transgenic C57BL/6 mice; experiment: IFN-γ ELISPOT of splenocytes restimulated with peptide; type: cell-based, mouse; settings: for IFN-γ ELISPOT, RSV: splenocytes of HLA-Tg B6 mice primed and boosted i.n. with 10^4 pfu RSV-B1; for IFN-γ ELISPOT, RSV / IFN-γ ELISPOT, rAd-F0: restimulated with 2 µg peptide, representative of two experiments, five mice per group; for IFN-γ ELISPOT, rAd-F0: splenocytes of HLA-Tg B6 mice primed and boosted i.n. with 10^7 pfu rAd-F0; for IFN-γ level in restimulated splenocytes (ELISPOT, text grading): splenocytes of rAd-F0- or RSV B1-primed and boosted HLA-Tg B6 mice, high = over 100 spots, moderate = over 50 spots
Description: (§1) To screen the immunodominance of epitopic peptide in the induction of RSV-F specific Th1/Th2 expression, HLA-A*0201 transgenic C57BL/6 mice were anesthetized with isoflurane and immunized with 1×10^7 pfu/50 µL of rAd-F0 or rAd-LacZ or 1×10^4 live RSV B1 via the intranasal (i.n.) route. Twenty days later, the mice were given booster immunization i.n. with the same dose. After 10 days of boost, mice were sacrificed and splenocytes were isolated for the cytokine ELISPOT assay. For peptide-based vaccination, transgenic mice were immunized subcutaneously (s.c.) with 50 µg of the individual synthetic peptides emulsified in 25 µL of incomplete Freund's adjuvant (IFA) (Sigma-Aldrich) and then boosted after 10 days s.c. with the same dose of the respective peptides mixed with IFA. Mice were sacrificed 7 days after the booster and splenocytes were isolated for in vitro peptide-restimulation. For challenge studies, 10^7 pfu of live RSV-B1 was administered i.n. seven days after the booster immunization with peptide vaccines. Mice were sacrificed on day 4 post-challenge and the lung tissues were collected and subjected to further analysis by flow cytometry, ELISA, CTL assay and immunohistochemistry. Mice body weight was monitored daily.
(§2) […] RBC-free splenocyte suspensions prepared from the individual mice were seeded in individual wells of 96-well filtration plates (Millipore) precoated with capturing monoclonal antibodies for murine IL-2, IL-4 or IFN-γ (0.5 µg/ well) (eBioscience) and blocked with conditioned medium (CM) for 1 hour at room temperature. The splenocytes were added with the individual RSV F 9-mer synthetic peptides (2 µg each) or GLC-9 dissolved in CM (100 µL). The splenocytes added with Con A (10 µg/mL) were used as positive control. Unstimulated splenocytes were used as negative control. The plates were kept in a 37°C incubator equilibrated with 5% CO2 for 48 hours. The individual wells of the ELISPOT plates were washed three times with washing buffer (0.05% tween20 in PBS, PBS-T), and then 0.2 µg of the corresponding biotinylated detection monoclonal antibodies specific for IL-2, IL-4 and IFN-γ were added to detect the respective cytokines. After 2 hours of incubation at room temperature, the plates were washed and 100 µl of streptavidin-alkaline phosphatase (1∶ 250 dilution) was added to the individual wells, and the plates were incubated at room temperature for 45 minutes. Finally, the plates were washed four times with the wash buffer, and 100 µl of AEC (3-amine-9-ethylcarbazole, Sigma-Aldrich) substrate was added to each well and allowed to react for 30 minutes at room temperature in the dark. The plates were then washed with water, air-dried overnight, and the spots per well were scored using the immunospot counting reader (C.T.L. IMMUNOSPOT, CELLULAR TECHNOLOGY LTD). Results were expressed as the number of cytokine-secreting cells per 5×10^5 splenocytes seeded in the initial culture.
(§3) Figure 1 Induction of IFN-γ and IL-2 in splenocytes from RSV F peptide immunized HLA-A*0201 transgenic mice upon secondary recall. Splenocytes harvested on day 30 from HLA-A-Tg B6 mice primed and boosted at 20 days interval intranasally with 10^7 pfu of rAd-F0 (□) or 10^4 pfu of RSV-B1 (▪)were restimulated with 2 µg of the individual RSV F peptide or 10 µg/ml Con A for 5 days in the presence of murine IL-2 . After stimulation, 5×10^5 splenocytes were seeded to anti-IFN-γ (A) or anti-IL-2 (B) capture antibody coated ELISPOT plates for 2 days for ELISPOT assay as described in Materials and Methods. Cytokine-positive immunospots were developed and the results are expressed as the number of immunospots +/−2 standard deviations for each experimental group. Data is representative of results derived from two independent experiments, each with five mice per group.

HLA-A*0201 = biological target: T1, HLA-A*0201 (Homo sapiens, UniProt P04439, D140Y/D185E/D98H/E176V/E277Q/G131W/G231S/I119V/I121R/I166T/I218V/L300P/L318F/N151K/N90K/P208A/P217A/Q86G/Q94H/R138H/R169H/T345S); experiment: T2 cell-stabilization assay (T2-binding); settings: for T2-binding Ratio of MFI: T2 cells 5×10^5, peptide 50 µg/mL + β2-microglobulin 5 µg/mL, 28°C 16–18 h, then brefeldin A 10 µg/mL 37°C 3 h, FITC anti-HLA-A2, flow cytometry, MFI relative to negative control HCV C55-74 (set as 1); for binding affinity, MFI higher than the baseline: T2 cell-based binding assay, baseline = negative control HCV C55-74, called modest binding affinity
T1 construct: Human T2 cells (purchased from the American Type Culture Collection, ATCC) (ATCC No. CRL-1992) expressing the HLA-A*0201 gene; endogenous in cells; host or cells: human T2 cells (ATCC CRL-1992)
Description: T2 cells (5×10^5) cultured in 96-well U-bottom plates were incubated with the individual 9-mer synthetic peptides (50 µg/mL) and β2-microglobulin (5 µg/mL; Sigma-Aldrich) at 28°C for 16–18 hours. Subsequently, brefeldin A (10 µg/mL) was added and the cells were incubated at 37°C for another 3 hours, then washed and stained with fluorescence isothiocyanate (FITC)-conjugated mouse anti-human HLA-A2 antibody (SeroTec). Peptide-loaded T2 cells were acquired and analyzed on the FACScan flow cytometer using CellQuest software (Becton Dickinson). GLC-9 peptide was used as positive control (PC). The mean fluorescence intensity (MFI) represents the binding affinity of each peptide compared to MFI (set as MFI = 1) obtained from negative control (NC), which is T2 cells loaded with HCV peptide C55-74.
Twenty-five 9-mer synthetic peptides derived from the RSV F glycoprotein sequence presumed to encompass HLA-A*0201 binding motifs were synthesized (Table 1). Each was tested for its ability to bind HLA-A*0201 molecules by T2 cell-based binding assay (data not shown). The relative mean fluorescence intensity (MFI) obtained from the positive control (PC) peptide derived from Epstein-Barr virus capsid protein (GLC-9, a previously defined HLA-A*0201-restricted CTL epitope) was twofold (MFI = 1.96) compared to the baseline MFI = 1 obtained from the negative control (NC) treated with an unrelated peptide HCV C55-74 (a C57BL/6-specific CD4 epitope). […] The remaining peptides had no detectable binding to the HLA-A*0201 molecules. Apparently, the different MFIs generated by binding of RSV F-derived peptides to HLA-A*0201 reflects on the binding specificity of different peptides to a given HLA molecule.

[2] = test system: splenocytes from HLA-A*0201 transgenic C57BL/6 mice; experiment: IL-2 ELISPOT of splenocytes restimulated with peptide; type: cell-based, mouse; settings: for IL-2 ELISPOT, RSV: splenocytes of HLA-Tg B6 mice primed and boosted i.n. with 10^4 pfu RSV-B1; for IL-2 ELISPOT, RSV / IL-2 ELISPOT, rAd-F0: restimulated with 2 µg peptide, representative of two experiments, five mice per group; for IL-2 ELISPOT, rAd-F0: splenocytes of HLA-Tg B6 mice primed and boosted i.n. with 10^7 pfu rAd-F0; for IL-2 level in restimulated splenocytes (ELISPOT, text grading): splenocytes of rAd-F0- or RSV B1-primed and boosted HLA-Tg B6 mice, high = over 100 spots, moderate = over 50 spots
Description: as §1, §2, §3

Row | Substance | IFN-γ ELISPOT, RSV [1] | IFN-γ ELISPOT, rAd-F0 [1] | T2-binding Ratio of MFI (HLA-A*0201) | IL-2 ELISPOT, RSV [2] | IL-2 ELISPOT, rAd-F0 [2] | IL-2 level in restimulated splenocytes (ELISPOT, text grading) [2] | IFN-γ level in restimulated splenocytes (ELISPOT, text grading) [1] | binding affinity, MFI higher than the baseline (HLA-A*0201) [%]
1 | 15: HLA-A*0201-restricted 9-mer synthetic peptide from F protein of RSV-B1 strain (KLMSNNVQI) [compound 15] | 0 cytokine-secreting cells per 5×10^5 splenocytes | 39 cytokine-secreting cells per 5×10^5 splenocytes | 1.51 | 59.5 cytokine-secreting cells per 5×10^5 splenocytes | 37 cytokine-secreting cells per 5×10^5 splenocytes | over 50 spots |  | 
2 | 16: HLA-A*0201-restricted 9-mer synthetic peptide from F protein of RSV-B1 strain (LMSNNVQIV) [compound 16] | 28 cytokine-secreting cells per 5×10^5 splenocytes | 54 cytokine-secreting cells per 5×10^5 splenocytes | 1.60 | 50.5 cytokine-secreting cells per 5×10^5 splenocytes | 52 cytokine-secreting cells per 5×10^5 splenocytes | over 50 spots | over 50 spots | 
3 | 18: HLA-A*0201-restricted 9-mer synthetic peptide from F protein of RSV-B1 strain (SVGNTLYYV) [compound 18] | 92.5 cytokine-secreting cells per 5×10^5 splenocytes | 115 cytokine-secreting cells per 5×10^5 splenocytes | 1.29 | 42 cytokine-secreting cells per 5×10^5 splenocytes | 0 cytokine-secreting cells per 5×10^5 splenocytes |  | over 100 spots | ~10
4 | 19: HLA-A*0201-restricted 9-mer synthetic peptide from F protein of RSV-B1 strain (KINQSLAFI) [compound 19] | 7.5 cytokine-secreting cells per 5×10^5 splenocytes | 200 cytokine-secreting cells per 5×10^5 splenocytes | 1.08 | 36.5 cytokine-secreting cells per 5×10^5 splenocytes | 52 cytokine-secreting cells per 5×10^5 splenocytes | over 50 spots | over 100 spots | 
5 | 20: HLA-A*0201-restricted 9-mer synthetic peptide from F protein of RSV-B1 strain (IMITTIIIV) [compound 20] | 9 cytokine-secreting cells per 5×10^5 splenocytes | 200 cytokine-secreting cells per 5×10^5 splenocytes | 1.03 | 24.5 cytokine-secreting cells per 5×10^5 splenocytes | 32 cytokine-secreting cells per 5×10^5 splenocytes |  | over 100 spots | 
6 | 21: HLA-A*0201-restricted 9-mer synthetic peptide from F protein of RSV-B1 strain (IIIVIIVIL) [compound 21] | 80 cytokine-secreting cells per 5×10^5 splenocytes | 16.5 cytokine-secreting cells per 5×10^5 splenocytes | 0.88 | 21 cytokine-secreting cells per 5×10^5 splenocytes | 2.5 cytokine-secreting cells per 5×10^5 splenocytes |  | over 50 spots | 
7 | 22: HLA-A*0201-restricted 9-mer synthetic peptide from F protein of RSV-B1 strain (VIIVILLSL) [compound 22] | 49 cytokine-secreting cells per 5×10^5 splenocytes | 88.5 cytokine-secreting cells per 5×10^5 splenocytes | 0.97 | 55 cytokine-secreting cells per 5×10^5 splenocytes | 21.5 cytokine-secreting cells per 5×10^5 splenocytes | over 50 spots | over 50 spots | 
8 | 24: HLA-A*0201-restricted 9-mer synthetic peptide from F protein of RSV-B1 strain (LLSLIAVGL) [compound 24] | 0 cytokine-secreting cells per 5×10^5 splenocytes | 84.5 cytokine-secreting cells per 5×10^5 splenocytes | 1.71 | 42 cytokine-secreting cells per 5×10^5 splenocytes | 5 cytokine-secreting cells per 5×10^5 splenocytes |  | over 50 spots | 
9 | 25: HLA-A*0201-restricted 9-mer synthetic peptide from F protein of RSV-B1 strain (SLIAVGLLL) [compound 25] | 96 cytokine-secreting cells per 5×10^5 splenocytes | 41 cytokine-secreting cells per 5×10^5 splenocytes | 1.42 | 44.5 cytokine-secreting cells per 5×10^5 splenocytes | 31 cytokine-secreting cells per 5×10^5 splenocytes |  | over 50 spots | ~10
